{
  "source": "patent US7897741B2",
  "about": "“Cell cycle phase markers” (GE Healthcare UK Limited, priority 2004, dated 2011)",
  "format_in_all_cases": "cell-based, human",
  "key": {"[1]": {"tested_on": "U2OS stable cells expressing the pCORON1002-EGFP-C1-PSLD construct", "test": "Chemical cell cycle block studies on EGFP-PSLD stable cell line (IN Cell Analyzer imaging)", "conditions": "for % G1: % of cells per field of view in G1-phase; for % G2: % of cells per field of view in G2-phase; for % S: % of cells per field of view in S-phase; for Total cells: total number of cells per field of view", "method": "Stable cells expressing the pCORON1002-EGFP-C1-PSLD construct, were seeded at 0.3×10^5/ml in 96-well Greiner plates using antibiotic-free medium (100 μl/well) and incubate for 16 hours.\nFor chemical block studies (Table 1), stable cells were exposed to olomoucine, roscovitine, nocodazole, mimosine, colcemid or colchicine (Sigma). Cells were fixed in 2% formalin and nuclei stained with hoechst (2 μM).\nAfter high throughput imaging and analysis on the IN Cell Analyzer system (GEHC), data for average nuclear intensity and N:C ratio (EGFP signal), nuclear size (hoescht signal) and, where appropriate, nuclear signal intensity (BrdU) were obtained for the total number of individual cells in a field of view using hoescht as a nuclear mask and the IN Cell Analyzer 3000 cell cycle phase marker algorithm (GEHC). For each well, the total number of cells per field of view were catagorised into G1-phase (predominantly nuclear EGFP distribution; high EGFP-PSLD nuclear intensity and N:C ratio), S-phase (nuclear BrdU signal >3SDs above background; EGFP-PSLD N:C ratio around 1) and G2-phase (large nuclear size; low EGFP-PSLD N:C ratio)."}, "[2]": {"tested_on": "CRM1-mediated nuclear export", "test": "Block of nuclear protein export: localization of GFP-HDHB and FLAG-HDHB in U2OS cells with LMB", "conditions": "in the presence of LMB (10 ng/ml, 3 h, with 10 μM cycloheximide); asynchronous, G1 and S phase U2OS cells", "method": "Cell cycle synchronization was verified by flow cytometry as described previously (Taneja et al., J. Biol. Chem., (2002) 277, 40853-40861). In experiments to block nuclear protein export, cells were cultured for 3 h in DMEM containing 10 ng/ml of leptomycin B (LMB) and 10 μM cycloheximide (Calbiochem, San Diego, Calif.) to prevent new protein synthesis. Cells plated on glass coverslips were microinjected as described (Herbig et al., 1999) except that plasmid DNA rather than protein was injected.\nFor indirect immunofluorescence staining, cells were washed three times with phosphate buffered saline (PBS), fixed with 3.7% formaldehyde in PBS for 20 min, permeabilized for 5 min in 0.2% Triton X-100, and incubated with 10% FBS in PBS for 45 min. FLAG-HDHB was detected with mouse monoclonal anti-FLAG antibody (Sigma-Aldrich), 1:100 in PBS plus 10% FBS for 2 h at room temperature. After washing, cells were incubated with Texas Red-conjugated goat anti-mouse secondary antibody (Jackson ImmunoResearch Laboratories, West Grove, Pa.) at 1:100 in PBS plus 10% FBS for 1 h at room temperature. […] The subcellular distribution of each protein was quantitatively evaluated in at least two independent experiments.\nFor GFP fluorescence, cells were washed three times with phosphate-buffered saline (PBS), fixed with 3.7% formaldehyde containing 2 μM Hoechst 33258 for 20 min and imaged and evaluated as above."}, "[3]": {"tested_on": "EGFP-PSLD stable cell lines (U2OS)", "test": "Kinetic imaging (24 hours) of EGFP-PSLD stable cell lines treated with olomoucine", "conditions": "cells arrested in G2, without passing through mitosis; kinetic imaging over 24 hours", "method": "Where appropriate, for high throughput imaging, kinetic imaging (24 hr) and analysis in multiwell plate format of stable cell lines flourescence microscopy was conducted using a high throughput confocal imaging system (IN Cell Analyzer 1000 or IN Cell Analyzer 3000, GE Healthcare, Amersham, UK) on cells transfected with pCORON1002-EGFP-C1-PSLD, pCORON1002-EGFP-C1-βGal-PSLD or redFP derivatives of these vectors. Images were analysed using the cell cycle phase marker algorithm (GE Health Care)."}},
  "data": [
    {"smiles": "CN[C@H]1CCc2cc(OC)c(OC)c(OC)c2-c2ccc(OC)c(=O)cc21", "note": "[Colcemid]", "values": [
      {"measurement": "% G1", "setting": "[1]; 0.3 μM", "value": 16, "unit": "%"},
      {"measurement": "% G2", "setting": "[1]; 0.3 μM", "value": 43, "unit": "%"},
      {"measurement": "% S", "setting": "[1]; 0.3 μM", "value": 41, "unit": "%"},
      {"measurement": "Total cells", "setting": "[1]; 0.3 μM", "value": 490},
      {"measurement": "% G1", "setting": "[1]; 1.2 μM", "value": 8, "unit": "%"},
      {"measurement": "% G2", "setting": "[1]; 1.2 μM", "value": 59, "unit": "%"},
      {"measurement": "% S", "setting": "[1]; 1.2 μM", "value": 32, "unit": "%"},
      {"measurement": "Total cells", "setting": "[1]; 1.2 μM", "value": 450}
    ]},
    {"smiles": "COc1cc2c(c(OC)c1OC)-c1ccc(OC)c(=O)cc1[C@@H](NC(C)=O)CC2", "note": "[Colchicine]", "values": [
      {"measurement": "% G1", "setting": "[1]; 4 μM", "value": 9, "unit": "%"},
      {"measurement": "% G2", "setting": "[1]; 4 μM", "value": 55, "unit": "%"},
      {"measurement": "% S", "setting": "[1]; 4 μM", "value": 36, "unit": "%"},
      {"measurement": "Total cells", "setting": "[1]; 4 μM", "value": 467},
      {"measurement": "% G1", "setting": "[1]; 100 μM", "value": 12, "unit": "%"},
      {"measurement": "% G2", "setting": "[1]; 100 μM", "value": 57, "unit": "%"},
      {"measurement": "% S", "setting": "[1]; 100 μM", "value": 32, "unit": "%"},
      {"measurement": "Total cells", "setting": "[1]; 100 μM", "value": 439}
    ]},
    {"smiles": "N[C@@H](Cn1ccc(=O)c(O)c1)C(=O)O", "note": "[L-mimosine]", "values": [
      {"measurement": "% G1", "setting": "[1]; 2 mM", "value": 6, "unit": "%"},
      {"measurement": "% G2", "setting": "[1]; 2 mM", "value": 26, "unit": "%"},
      {"measurement": "% S", "setting": "[1]; 2 mM", "value": 68, "unit": "%"},
      {"measurement": "Total cells", "setting": "[1]; 2 mM", "value": 1710}
    ]},
    {"smiles": "CCC(=C/[C@H](C)C/C=C/C(C)=C/[C@@H](C)C(=O)[C@@H](C)[C@H](O)[C@@H](C)C/C(C)=C/C(=O)O)/C=C/[C@@H]1OC(=O)C=C[C@@H]1C", "note": "[LMB, Leptomycin B]", "values": [
      {"measurement": "Localization of GFP-HDHB and FLAG-HDHB fusion proteins", "setting": "[2]", "value": "accumulated in the nucleus independently of the cell cycle"}
    ]},
    {"smiles": "COC(=O)Nc1nc2ccc(C(=O)c3cccs3)cc2[nH]1", "note": "[Nocodazole]", "values": [
      {"measurement": "% G1", "setting": "[1]; 3 μM", "value": 6, "unit": "%"},
      {"measurement": "% G2", "setting": "[1]; 3 μM", "value": 61, "unit": "%"},
      {"measurement": "% S", "setting": "[1]; 3 μM", "value": 33, "unit": "%"},
      {"measurement": "Total cells", "setting": "[1]; 3 μM", "value": 606}
    ]},
    {"smiles": "Cn1cnc2c(NCc3ccccc3)nc(NCCO)nc21", "note": "[Olomoucine]", "values": [
      {"measurement": "% G1", "setting": "[1]; 500 μM", "value": 63, "unit": "%"},
      {"measurement": "% G2", "setting": "[1]; 500 μM", "value": 4, "unit": "%"},
      {"measurement": "% S", "setting": "[1]; 500 μM", "value": 33, "unit": "%"},
      {"measurement": "Total cells", "setting": "[1]; 500 μM", "value": 600},
      {"measurement": "Time for EGFP-PSLD signal to redistribute from the cytoplasm to the nucleus", "setting": "[3]", "value": "4 to 8", "unit": "h"}
    ]},
    {"smiles": "CC[C@H](CO)Nc1nc(NCc2ccccc2)c2ncn(C(C)C)c2n1", "note": "[Roscovitin]", "values": [
      {"measurement": "% G1", "setting": "[1]; 100 μM", "value": 52, "unit": "%"},
      {"measurement": "% G2", "setting": "[1]; 100 μM", "value": 13, "unit": "%"},
      {"measurement": "% S", "setting": "[1]; 100 μM", "value": 36, "unit": "%"},
      {"measurement": "Total cells", "setting": "[1]; 100 μM", "value": 693},
      {"measurement": "EGFP-PSLD distribution and cell cycle arrest", "setting": "[1]; EGFP-PSLD stable cell lines, refers to Table 1", "value": "predominantly nuclear distribution of EGFP-PSLD and arrest in G1"}
    ]}
  ]
}
